Assays:
Format in all cases: functional
Podosphaera fuliginea [1] = assay: Antifungal activity against Podosphaera fuliginea in cucumber at 125 ppm
[2] = test system: Pseudoperonospora cubensis; assay: Antifungal activity against Pseudoperonospora cubensis in cucumber at 500 ppm
Podosphaera fuliginea [3] = assay: Antifungal activity against Podosphaera fuliginea in cucumber at 2 ppm
Podosphaera fuliginea [4] = assay: Antifungal activity against Podosphaera fuliginea in cucumber at 7.8 ppm
[5] = test system: Pseudoperonospora cubensis; assay: Antifungal activity against Pseudoperonospora cubensis in cucumber at 7.8 ppm
Podosphaera fuliginea [6] = assay: Antifungal activity against Podosphaera fuliginea in cucumber at 31.3 ppm
[7] = test system: Pseudoperonospora cubensis; assay: Antifungal activity against Pseudoperonospora cubensis in cucumber at 2 ppm
Botrytis cinerea [8] = assay: Antifungal activity against Botryotinia fuckeliana in cucumber at 7.8 ppm
Botrytis cinerea [9] = assay: Antifungal activity against Botryotinia fuckeliana in cucumber at 500 ppm
[10] = test system: Pseudoperonospora cubensis; assay: Antifungal activity against Pseudoperonospora cubensis in cucumber at 125 ppm
[11] = test system: Pseudoperonospora cubensis; assay: Antifungal activity against Pseudoperonospora cubensis in cucumber at 31.3 ppm
Podosphaera fuliginea [12] = assay: Antifungal activity against Podosphaera fuliginea in cucumber at 500 ppm

CO/N=C(\c1ccccc1/C=N/OC(C)c1ccccc1C(F)(F)F)c1nccn1C (stereo not drawn)
Activity (Podosphaera fuliginea [1]): 90% | Activity [2]: <50%

CO/N=C(\c1ccccc1/C=N/OC(C)c1cccc(C(F)(F)F)c1)c1nccn1C (stereo not drawn)
Activity (Podosphaera fuliginea [3]): 90% | Activity [2]: 50%

CO/N=C(\c1ccccc1/C=N/OC(C)c1ccc(Br)cc1)c1nccn1C (stereo not drawn)
Activity (Podosphaera fuliginea [4]): 90% | Activity [5]: 50%

CO/N=C(\c1ccccc1/C=N/OC(C)c1ccc(OC)cc1)c1nccn1C (stereo not drawn)
Activity (Podosphaera fuliginea [6]): 90% | Activity [2]: <50%

CO/N=C(\c1ccccc1/C=N/OC(C)c1ccc(OC(F)(F)F)cc1)c1nccn1C (stereo not drawn)
Activity [7]: 50% | Activity (Podosphaera fuliginea [3]): 90%

CO/N=C(\c1ccccc1/C=N/OC(C)c1ccc(Cl)cc1Cl)c1nccn1C (stereo not drawn)
Activity (Podosphaera fuliginea [6]): 90% | Activity [2]: <50%

CO/N=C(\c1ccccc1/C=N/OCc1ccc(Cl)cc1)c1nccn1C
Activity (Podosphaera fuliginea [4]): 90% | Activity [2]: <50%

CCC(O/N=C/c1ccccc1/C(=N\OC)c1nccn1C)c1ccc(Cl)c(Cl)c1 (stereo not drawn)
Activity (Podosphaera fuliginea [6]): 90% | Activity [5]: 50%

CO/N=C(\c1ccccc1COc1ccc(Cl)cc1C)c1nccn1C
Activity (Botrytis cinerea [8]): 50% | Activity (Podosphaera fuliginea [3]): 90% | Activity [2]: <50%

CO/N=C(\c1ccccc1COc1ccc(Cl)cn1)c1nccn1C
Activity (Podosphaera fuliginea [6]): 90% | Activity [2]: 50% | Activity (Botrytis cinerea [9]): 50%

CO/N=C(\c1ccccc1COc1ccc(C(F)(F)F)cn1)c1nccn1C
Activity (Podosphaera fuliginea [4]): 90% | Activity [2]: 50% | Activity (Botrytis cinerea [9]): 50%

CO/N=C(\c1ccccc1COc1ncc(Cl)cc1Cl)c1nccn1C
Activity (Podosphaera fuliginea [4]): 90% | Activity (Botrytis cinerea [9]): 50% | Activity [10]: 50%

CO/N=C(\c1ccccc1/C=N/N=C(/C)c1ccc(Cl)cc1)c1nccn1C
Activity (Podosphaera fuliginea [6]): 90% | Activity (Botrytis cinerea [9]): <50% | Activity [11]: 50%

CO/N=C(\c1ccccc1/C=N/N=C(/C)c1ccc(C(F)(F)F)cc1)c1nccn1C
Activity (Podosphaera fuliginea [4]): 90% | Activity (Botrytis cinerea [9]): <50% | Activity [5]: 50%

CO/N=C(\c1ccccc1/C=N/N=C(/C)c1ccc(Cl)c(Cl)c1)c1nccn1C
Activity (Podosphaera fuliginea [4]): 90% | Activity (Botrytis cinerea [9]): <50% | Activity [5]: 50%

CO/N=C(\c1ccccc1/C=N/OC(C)c1ccc(Cl)cc1)c1nccn1C (stereo not drawn)
Activity (Podosphaera fuliginea [3]): 90% | Activity (Botrytis cinerea [9]): 50% | Activity [5]: 50%

CO/N=C(\c1ccccc1/C=N/OC(C)c1ccc(C(F)(F)F)cc1)c1nccn1C (stereo not drawn)
Activity [7]: 50% | Activity (Podosphaera fuliginea [3]): 90% | Activity (Botrytis cinerea [9]): <50%

CO/N=C(\c1ccccc1/C=N/OC(C)c1ccc(Cl)c(Cl)c1)c1nccn1C (stereo not drawn)
Activity (Podosphaera fuliginea [3]): 90% | Activity (Botrytis cinerea [9]): 50% | Activity [5]: 50%

CO/N=C(\c1ccccc1/C=N/OC(C)c1ccccc1)c1nccn1C (stereo not drawn)
Activity (Podosphaera fuliginea [1]): 90% | Activity [2]: <50%

CO/N=C(\c1ccccc1/C=N/OC(C)c1ccccc1Cl)c1nccn1C (stereo not drawn)
Activity (Podosphaera fuliginea [1]): 90% | Activity [2]: <50%

CO/N=C(\c1ccccc1/C=N/OC(C)c1cccc(Cl)c1)c1nccn1C (stereo not drawn)
Activity (Podosphaera fuliginea [1]): 90% | Activity [2]: <50%

CO/N=C(\c1ccccc1/C=N/OC(C)c1ccccc1C)c1nccn1C (stereo not drawn)
Activity [2]: <50% | Activity (Podosphaera fuliginea [12]): 90%

CO/N=C(\c1ccccc1/C=N/OC(C)c1cccc(C)c1)c1nccn1C (stereo not drawn)
Activity (Podosphaera fuliginea [6]): 90% | Activity [2]: <50%

CO/N=C(\c1ccccc1/C=N/OC(C)c1ccc(C)cc1)c1nccn1C (stereo not drawn)
Activity (Podosphaera fuliginea [6]): 90% | Activity [2]: <50%

— ChEMBL document CHEMBL3046967, “Synthesis and Fungicidal Activities of 2-(-Methoxyiminobenzyl)-1-methylimidazole Derivatives” (2001)
